Assay [1] has as its system left ventricular contractility (left ventricular dp/dt max). The assay can be described thus: Cardiac stimulant activity in vivo, left ventricular dp/dt max in anaesthetised cats. To be noted: Felis catus, iv, read-out: ED50 (dose to increase left ventricular dp/dt max by 50%), i.v., pretreated with pempidine and propranolol.
Assay [2] addresses PDE (Peak III). The assay can be described thus: Inhibition of phosphodiesterase PDE (Peak III) from cat heart. The following applies: 1 μM cyclic AMP.
Method: The enzyme was assayed by incubation at 37° for 4-30 min in 50 mM Tris, 5 mM MgCl2, pH 7.5 with [3-H]cyclic nucleotide (4×10^5 disintegrations min^-1) and [14-C] nucleotide 5' monophosphate (3×10^3 disintegrations min^-1). […] The reaction mixture was diluted with 0.5 ml 100 mM HEPES (N-2-Hydroxyethylpiperazine-N'-2-ethanesulfonic acid), 100 mM NaCl, pH 8.5, and applied to the column. […] The recovery of product as judged by [14-C] recovery was approximately 80%. All assays were linear with time of incubation and concentration of enzyme over the range used in these experiments.
For assay [3], the system named is ventricular strips. Put plainly: Cardiac stimulant activity in vitro, force of contraction of guinea pig ventricular strips. Type of assay: cell-based, Guinea pigs. To be noted: Cavia porcellus, read-out: EC50 (50% increase in the force of contraction of the ventricular strips); concentration in bathing fluid. The method, then: The compounds of formula (I) and their pharmaceutically acceptable salts are tested for cardiac stimulant activity following a procedure based on that of S. C. Verma and J. H. McNeill (J. Pharm. & Exp. Therapeutics, 200, 352-362 (1977)). Guinea pigs (500-700 g) of either sex are sacrificed and the hearts are quickly removed and transferred to a dissecting dish containing oxygenated bathing fluid. While in the bathing medium, the right ventricle is cut into two strips. The strips are each suspended in a 50 ml bath containing Krebs Henseleit solution at 37° C., and the bath is bubbled with 95% oxygen and 5% carbon dioxide. The ventricular strips are electrically stimulated at a frequency of 1.0 Hz, at double the threshold voltage. A resting tension of 1.0 g is applied to the strips and the tension is kept constant by readjustment during an equilibration period of 60 minutes. The bathing fluid is frequently changed during this period. When a steady base line is obtained, a compound under test is added to the bathing fluid and a cumulative concentration response curve is plotted.

The test system of assay [4] is hindquarters perfusion pressure. Put plainly: Vasodilator activity in autoperfused anaesthetised cat hind quarters. Type of assay: in vivo. The following applies: Felis catus, iv, constant blood flow, i.v., read-out: ED15 (i.v. dose to decrease hindquarters perfusion pressure by 15%). The method, then: The compounds of the Examples were tested in autoperfused anaesthetised cat hind quarters (autoperfused at constant blood flow). The i.v. dose to decrease hindquarters perfusion pressure (vasodilatation) by 15% is given as the ED15.

Assay [5] has as its system histamine-induced bronchoconstriction. Put plainly: Bronchodilatation in vivo, histamine-induced bronchoconstriction in anaesthetised guinea-pigs. The arrangement: species or system Dunkin Hartley strain. The following applies: n=1. On the procedure:
Male guinea-pigs of the Dunkin Hartley strain (500-600 g) were anaesthetised with Sagatal (pentobarbital sodium) (60 mg/kg i.p.). Airway resistance was measured using a modification of the classical Konzett-Rossler technique (Versuchsanordnung zu Untersuchungen an der Bronchialmuskulatur. Naunyn-Schmiedebergs Arch. Exp. Path. Pharmak., 195: pp 71-74, (1940)). A dose of histamine which gave approximately 150% increase in airway resistance was selected for i.v. administration. Bolus doses of the compound of Example 6 were administered (i.v.) on minute before the histamine challenge (n=1).

Consider six compounds from patent publication US4904664A, “Benzene compounds having two pyridazinone substituents” (Smith Kline & French Laboratories Limited, priority 1985, dated 1990).

As for `O=c1ccc(-c2ccc(-c3ccc(=O)[nH]n3)cc2)n[nH]1` [Example 1, 1,4-Bis(6-oxo-1,6-dihydropyridazin-3-yl)benzene], the ED50 in assay [1] was determined as 0.04 µmol/kg. Besides, in assay [2], the midpoint of inhibition, the IC50, lay at 330 nM. Besides, the EC50 in assay [3] is 900 nM.

Regarding `O=C1CCC(c2ccc(C3=NNC(=O)CC3)cc2)=NN1` [Example 2, 1,4-Bis(6-oxo-1,4,5,6-tetrahydropyridazin-3-yl)benzene], the ED15 in assay [4] amounted to 0.12 µmol/kg. Besides, the ED50 in assay [1] was 0.55 µmol/kg. Also, the IC50 in assay [2] came out at 640 nM.

Take `CC1CC(=O)NN=C1c1ccc(C2=NNC(=O)CC2C)cc1` (stereo not drawn) [Example 3, 1,4-Bis(4-methyl-6-oxo-1,4,5,6-tetrahydropyridazin-3-yl)benzene]: the ED15 in assay [4] was 0.04 µmol/kg. For the same compound, the ED50 in assay [1] came out at 0.06 µmol/kg. In assay [2], this compound registered an IC50 of 110 nM.

As to `Cc1cc(=O)[nH]nc1-c1ccc(-c2n[nH]c(=O)cc2C)cc1` [Example 4, 1,4-Bis(4-methyl-6-oxo-1,6-dihydropyridazin-3-yl)benzene], the IC50 in assay [2] was determined as 37500 nM.

As for `O=c1ccc(-c2cccc(-c3ccc(=O)[nH]n3)c2)n[nH]1` [Example 5, 1,3-Bis(6-oxo-1,6-dihydropyridazin-3-yl)benzene], the ED15 in assay [4] came out at 3.23 µmol/kg. In addition, the ED50 in assay [1] came out at 3.16 µmol/kg. Besides, the IC50 in assay [2] stood at 3900 nM.

`CC1CC(=O)NN=C1c1ccc(-c2ccc(=O)[nH]n2)cc1` (stereo not drawn) [Example 6, 6-[4-(4-Methyl-6-oxo-1,4,5,6-tetrahydropyridazin-3-yl)phenyl]pyridazin-3(2H)-one]: the ED15 in assay [4] is 0.01 µmol/kg. For the same compound, the ED50 in assay [1] was 0.02 µmol/kg; in assay [5] (Cavia porcellus, iv, read-out: ED50 (dose which would reduce the histamine bronchoconstriction by 50%), i.v. one minute before histamine challenge, calculated by interpolation), 0.033 µmol/kg. Also, the IC50 in assay [2] is 70 nM. Further, in assay [5] (i.v., in words), the “effect on histamine-induced bronchoconstriction” value is “reduced the histamine-induced bronchoconstriction”.
